Laboratory results reported in PubChem BioAssay (NCI).
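96-well plates; 48 h exposure; 5 concentrations. Endpoints by linear interpolation between flanking doses. Not reached: highest tested concentration assigned. The concentration for 50% growth inhibition is given as GI50. TGI is the concentration that stops growth completely.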

Key:
Experiment in all cases: inhibition of tumour cell growth, NCI panel, 48 h
A549 NSCLC = system: A549 NSCLC
HCT-116 colon = system: HCT-116 colon
HCT-15 colon = system: HCT-15 colon
HOP-92 NSCLC = system: HOP-92 NSCLC
HS 578T breast = system: HS 578T breast
KM12 colon = system: KM12 colon
SK-OV-3 ovarian = system: SK-OV-3 ovarian
U251 CNS = system: U251 CNS

Compound | GI50 (A549 NSCLC) [µM] | TGI (A549 NSCLC) [µM] | GI50 (HCT-116 colon) [nM] | TGI (HCT-116 colon) [µM] | GI50 (HCT-15 colon) [nM] | TGI (HCT-15 colon) [µM] | GI50 (HOP-92 NSCLC) [nM] | TGI (HOP-92 NSCLC) [µM] | GI50 (HS 578T breast) [nM] | TGI (HS 578T breast) [µM] | GI50 (KM12 colon) [µM] | TGI (KM12 colon) [µM] | GI50 (SK-OV-3 ovarian) [µM] | TGI (SK-OV-3 ovarian) [µM] | GI50 (U251 CNS) [nM] | TGI (U251 CNS) [µM]
O=C(Nc1ccc(OCc2nnc(-c3ccccc3)o2)c(F)c1)Nc1ccc(Cl)c(C(F)(F)F)c1 | 1.91 | 35.5 | 1810 | 6.37 | 2280 | 14.8 | 1780 | 5.17 | 2000 | 7.09 | 1.47 | 5.09 | 3.17 | 9.46 | 1540 | 4.68
COc1ccc2cc(Cn3cc[n+](Cc4ccc5ccccc5c4)c3)ccc2c1 | 8.16 | 23.7 | 2230 | 7.43 | 15800 | 32.4 | 672 | 3.33 | 2320 | 9.92 | 1.72 | 3.43 | 3.19 | 12.6 | 2790 | 12.3
Cc1nn(-c2ccccc2)c2nc3c(nc12)C1=NCCN1C(c1ccc(Cl)cc1)N3 (stereo not given) | 4.63 | 17.7 | 2160 | 4.86 | 2890 | 9.75 | 2000 | 9.69 | 3100 | 12.8 | 3.62 | 12.2 | 7.9 | 19.4 | 2210 | 5.98
CCCC(=O)Nc1ccc2c(c1)CN1C(=O)c3ccccc3C1=N2 |  | > 100 |  | > 100 |  | > 100 |  | > 100 |  | > 100 |  | > 100 |  | > 100 |  | > 100
Oc1ccc(-c2cn3cc(Cl)sc3n2)cc1 | 30.8 | > 100 |  |  | > 100000 | > 100 |  |  | > 100000 | > 100 | 20.9 | 74.1 |  |  | > 100000 | > 100
N#C/C(=C1C=C/C(=N\O)C(Cl)=C\1)c1ccccc1 | 3.27 | > 100 | 382 | 11.4 | 2340 | 11 |  |  | 3580 | 38.5 | 0.772 | 10.4 | 3.77 | 14.4 |  | 
COc1cc(C2CC(c3ccccc3)=NN2C(C)=O)cc(OC)c1OC (stereo not given) | 6.63 | > 100 | 2830 | > 100 | 2480 | > 100 | 32900 | > 100 | 2570 | 34.6 | 1.42 | > 100 | 3.91 | > 100 | 3930 | > 100
O=C1CC[C@H](c2ccc(O)c3c2C(=O)[C@@H]2O[C@@H]2C3=O)c2cccc(O)c21 | 16.4 | 40.9 | 1970 | 3.89 |  |  | 2380 | 5.12 | 3780 | 97.2 | 3.51 | 12.9 | 16.6 | 30.4 | 11600 | 25.2
N=c1n(Cc2ccccc2)c(N)cc(=O)n1Cc1ccccc1 | 1.19 | 2.56 | 2740 | 10.7 | 3490 | 12.3 | 2060 | 10 | 1040 |  | 4.75 | 29.3 | 2.99 | 8.44 | 3320 | 11.7
CCn1c(-c2nonc2N)nc2cncc(C(=O)NCCNC)c21 | 4.47 | > 23.3 | 2780 | > 25 | 5980 | > 25 |  |  | 360 | > 6.59 | > 25 | > 25 | 17.3 | > 25 | > 25000 | > 25
COc1ccc2c(c1)/C(=C\c1c(Cl)n(C)c3ccccc13)C(=O)N2 | 0.818 | > 100 | 1290 | > 28.6 | 456 | 8.17 | 5500 | 29.4 | 1440 | 8.12 | 9.06 | 26.4 | 0.86 | 14.5 | 817 | 10.5
CCCCCCCCCCCCCCCCCC(=O)OCC(COC1OC(CS(=O)(=O)O)C(O)C(O)C1O)OC(=O)CCCCCCCCCCCCCCCCC (stereo not given) |  | > 100 |  | > 100 |  | > 100 |  | > 100 |  | > 100 |  | > 100 |  | > 100 |  | > 100
O=C(Cc1ccccc1)NC(c1ccc(Cl)cc1)c1c(O)ccc2ccccc12 (stereo not given) | 3.68 | 13.3 | 2170 | 5.16 | 2830 | 10.5 | 2770 | 7.24 | 2810 | 13.8 | 3.62 | 11.7 | 3.01 | 9.26 | 2550 | 6.94
CCN(CC)CCCC(Cc1ccccc1)Nc1c2ccc(Cl)cc2nc2ccc(OC)cc12 (stereo not given) | 2.79 | 7.29 | 1950 | 10.7 | 1880 | 4.72 | 2100 | 4.9 |  |  | 2.79 | 10.3 | 4.09 | 13.9 | 1560 | 3.11
N#CCCSC(=S)C1CCCC1=N (stereo not given) |  | > 100 |  | > 100 |  | > 100 |  | > 100 |  | > 100 |  | > 100 |  | > 100 |  | > 100
CCOC(=O)c1c(Cl)c2c(n1Cc1cccc(OC)c1)-c1oncc1CC2 | 5.16 | > 100 | 904 | 24.2 | 836 | > 100 | 9240 | > 100 | 1210 | 9.45 | 0.732 | 77.9 | 3.36 | > 100 | 4750 | > 100
